{"source": "paper PMC8429728", "about": "“TNK1 is a ubiquitin-binding and 14-3-3-regulated kinase that can be targeted to block tumor growth” (Nature Communications, 2021)", "assay_in_all_cases": "biochemical", "design_in_all_cases": "Reaction Biology 371-kinase panel at Km ATP, per cent enzyme activity relative to DMSO, single dose in duplicate", "conditions_in_all_cases": "duplicate measurements, Km ATP", "key": {"[1]": {"target": "VRK1 (Homo sapiens, UniProt Q99986)", "sequence (Q99986 whole entry)": "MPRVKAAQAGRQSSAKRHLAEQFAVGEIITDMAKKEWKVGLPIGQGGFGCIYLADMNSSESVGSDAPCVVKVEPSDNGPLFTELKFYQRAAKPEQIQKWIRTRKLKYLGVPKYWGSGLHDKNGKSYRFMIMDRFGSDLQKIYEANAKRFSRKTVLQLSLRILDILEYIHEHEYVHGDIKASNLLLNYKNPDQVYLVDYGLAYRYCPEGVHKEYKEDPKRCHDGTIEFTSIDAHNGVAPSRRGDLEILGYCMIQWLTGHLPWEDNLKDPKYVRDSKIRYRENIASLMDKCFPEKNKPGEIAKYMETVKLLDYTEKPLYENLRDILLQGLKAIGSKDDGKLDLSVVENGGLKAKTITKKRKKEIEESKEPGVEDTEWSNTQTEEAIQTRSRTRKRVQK", "procedure,_shortened": "(§1)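 Compound screened at 300 nM in vitro across a 371-kinase panel. Enzyme activity expressed as % of DMSO controls. IC50 values came from sigmoidal variable-slope dose-response fits with the bottom fixed at 0.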"}, "[2]": {"target": "HIPK3 (Homo sapiens, UniProt Q9H422)", "procedure,_shortened": "as §1"}, "[3]": {"target": "TLK1 (Homo sapiens, UniProt Q9UKI8)", "sequence (Q9UKI8 whole entry)": "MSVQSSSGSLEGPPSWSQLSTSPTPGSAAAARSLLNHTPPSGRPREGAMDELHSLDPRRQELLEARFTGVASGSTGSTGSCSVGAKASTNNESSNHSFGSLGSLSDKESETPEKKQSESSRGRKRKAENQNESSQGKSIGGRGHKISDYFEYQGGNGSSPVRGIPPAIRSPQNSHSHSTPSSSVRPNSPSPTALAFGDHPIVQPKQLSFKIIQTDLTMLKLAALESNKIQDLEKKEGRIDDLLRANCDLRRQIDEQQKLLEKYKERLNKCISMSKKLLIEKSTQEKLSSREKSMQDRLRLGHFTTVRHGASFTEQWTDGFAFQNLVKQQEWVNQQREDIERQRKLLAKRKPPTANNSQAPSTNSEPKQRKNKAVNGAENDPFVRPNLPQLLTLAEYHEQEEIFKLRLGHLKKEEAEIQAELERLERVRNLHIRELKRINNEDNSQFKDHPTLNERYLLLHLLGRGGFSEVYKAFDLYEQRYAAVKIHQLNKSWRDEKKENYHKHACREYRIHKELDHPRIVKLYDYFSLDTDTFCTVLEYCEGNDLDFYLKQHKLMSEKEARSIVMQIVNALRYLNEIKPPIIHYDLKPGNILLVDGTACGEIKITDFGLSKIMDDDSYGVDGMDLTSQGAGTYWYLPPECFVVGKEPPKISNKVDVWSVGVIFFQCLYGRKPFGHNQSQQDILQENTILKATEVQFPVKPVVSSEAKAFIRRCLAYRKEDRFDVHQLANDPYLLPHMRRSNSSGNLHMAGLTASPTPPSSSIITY", "procedure,_shortened": "as §1"}, "[4]": {"target": "ZIPK/DAPK3 (Homo sapiens, UniProt O43293)", "sequence (O43293 whole entry)": "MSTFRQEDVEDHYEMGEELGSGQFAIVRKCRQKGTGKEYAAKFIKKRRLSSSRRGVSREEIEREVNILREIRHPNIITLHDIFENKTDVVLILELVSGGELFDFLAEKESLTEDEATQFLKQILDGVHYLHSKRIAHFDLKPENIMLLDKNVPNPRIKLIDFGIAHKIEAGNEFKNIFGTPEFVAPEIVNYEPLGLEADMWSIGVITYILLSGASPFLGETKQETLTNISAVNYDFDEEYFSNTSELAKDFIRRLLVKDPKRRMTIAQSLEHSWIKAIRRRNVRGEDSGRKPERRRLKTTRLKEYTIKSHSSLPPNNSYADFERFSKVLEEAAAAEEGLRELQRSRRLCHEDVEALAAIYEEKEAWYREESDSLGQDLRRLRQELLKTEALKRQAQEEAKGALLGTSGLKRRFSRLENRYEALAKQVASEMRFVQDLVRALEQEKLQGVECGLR", "procedure,_shortened": "as §1"}, "[5]": {"target": "GRK2 (Homo sapiens, UniProt P25098)", "sequence (P25098 whole entry)": "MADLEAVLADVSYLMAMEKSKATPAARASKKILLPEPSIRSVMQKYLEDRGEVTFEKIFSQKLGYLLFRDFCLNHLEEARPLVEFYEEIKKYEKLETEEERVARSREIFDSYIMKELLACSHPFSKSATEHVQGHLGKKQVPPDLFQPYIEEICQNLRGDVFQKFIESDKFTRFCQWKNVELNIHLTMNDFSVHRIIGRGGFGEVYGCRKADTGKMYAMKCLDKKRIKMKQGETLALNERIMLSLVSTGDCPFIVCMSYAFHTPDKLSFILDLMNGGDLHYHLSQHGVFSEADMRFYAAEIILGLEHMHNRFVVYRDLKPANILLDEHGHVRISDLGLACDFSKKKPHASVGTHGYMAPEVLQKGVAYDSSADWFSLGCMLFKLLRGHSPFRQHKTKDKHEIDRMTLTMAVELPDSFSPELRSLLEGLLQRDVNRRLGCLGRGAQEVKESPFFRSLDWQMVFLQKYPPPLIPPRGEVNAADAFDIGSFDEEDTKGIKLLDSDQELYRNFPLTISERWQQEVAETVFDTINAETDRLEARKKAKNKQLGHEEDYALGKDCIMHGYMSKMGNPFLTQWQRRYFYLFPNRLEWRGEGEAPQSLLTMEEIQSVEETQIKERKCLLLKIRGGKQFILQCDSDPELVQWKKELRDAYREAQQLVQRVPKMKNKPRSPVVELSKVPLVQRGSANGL", "procedure,_shortened": "as §1"}, "[6]": {"target": "MST1/STK4 (Homo sapiens, UniProt Q13043)", "procedure,_shortened": "as §1"}, "[7]": {"target": "T1, AURORA C (Homo sapiens, UniProt Q9UQB9)", "T1 construct": "gene AURKC", "T1 sequence (Q9UQB9 whole entry)": "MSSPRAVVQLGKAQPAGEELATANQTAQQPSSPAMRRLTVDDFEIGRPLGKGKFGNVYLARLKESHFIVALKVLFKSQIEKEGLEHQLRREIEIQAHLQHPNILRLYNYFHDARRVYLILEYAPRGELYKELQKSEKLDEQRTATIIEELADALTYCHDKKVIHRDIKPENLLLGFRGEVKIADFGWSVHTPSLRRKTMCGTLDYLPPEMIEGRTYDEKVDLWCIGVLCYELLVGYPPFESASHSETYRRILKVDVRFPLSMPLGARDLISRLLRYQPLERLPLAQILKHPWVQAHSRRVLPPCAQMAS", "procedure,_shortened": "as §1"}, "[8]": {"target": "CDK9/cyclin T1 (Homo sapiens, UniProt P50750)", "procedure,_shortened": "as §1"}, "[9]": {"target": "MUSK (Homo sapiens, UniProt O15146)", "procedure,_shortened": "as §1"}, "[10]": {"target": "T2, Aurora A (Homo sapiens, UniProt O14965)", "T2 construct": "gene AURKA", "T2 sequence (O14965 1-403)": "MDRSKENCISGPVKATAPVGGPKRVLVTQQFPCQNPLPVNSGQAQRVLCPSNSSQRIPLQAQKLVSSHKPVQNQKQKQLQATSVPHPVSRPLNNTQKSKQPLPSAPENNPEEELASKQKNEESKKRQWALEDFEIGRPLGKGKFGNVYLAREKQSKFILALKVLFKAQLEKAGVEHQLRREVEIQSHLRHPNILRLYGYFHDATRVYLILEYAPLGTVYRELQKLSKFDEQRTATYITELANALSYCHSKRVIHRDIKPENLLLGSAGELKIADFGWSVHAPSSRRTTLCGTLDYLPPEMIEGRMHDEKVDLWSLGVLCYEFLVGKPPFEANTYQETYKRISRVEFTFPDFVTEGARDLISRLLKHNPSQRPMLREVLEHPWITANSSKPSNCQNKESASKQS", "procedure,_shortened": "as §1"}, "[11]": {"target": "GRK1 (Homo sapiens, UniProt Q15835)", "sequence (Q15835 whole entry)": "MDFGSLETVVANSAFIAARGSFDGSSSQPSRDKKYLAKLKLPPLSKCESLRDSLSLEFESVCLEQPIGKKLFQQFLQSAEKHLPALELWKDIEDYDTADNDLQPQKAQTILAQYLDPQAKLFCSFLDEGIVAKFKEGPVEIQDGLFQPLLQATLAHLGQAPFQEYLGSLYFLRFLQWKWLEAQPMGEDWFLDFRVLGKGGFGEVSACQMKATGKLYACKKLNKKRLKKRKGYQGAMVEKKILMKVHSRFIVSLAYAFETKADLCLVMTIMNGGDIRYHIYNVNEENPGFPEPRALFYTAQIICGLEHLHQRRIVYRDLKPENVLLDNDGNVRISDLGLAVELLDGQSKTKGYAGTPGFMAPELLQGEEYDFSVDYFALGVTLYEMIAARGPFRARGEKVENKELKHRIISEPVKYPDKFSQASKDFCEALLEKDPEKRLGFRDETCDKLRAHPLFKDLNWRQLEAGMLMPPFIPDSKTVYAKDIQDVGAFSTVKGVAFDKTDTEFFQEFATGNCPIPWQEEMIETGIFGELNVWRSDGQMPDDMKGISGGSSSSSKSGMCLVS", "procedure,_shortened": "as §1"}, "[12]": {"target": "PIM3 (Homo sapiens, UniProt Q86V86)", "procedure,_shortened": "as §1"}, "[13]": {"target": "T3, PKCiota (Homo sapiens, UniProt P41743)", "T3 construct": "gene PRKCI", "procedure,_shortened": "as §1"}, "[14]": {"target": "T4, DCAMKL1 (Homo sapiens, UniProt O15075)", "T4 construct": "gene DCLK1", "T4 sequence (O15075 whole entry)": "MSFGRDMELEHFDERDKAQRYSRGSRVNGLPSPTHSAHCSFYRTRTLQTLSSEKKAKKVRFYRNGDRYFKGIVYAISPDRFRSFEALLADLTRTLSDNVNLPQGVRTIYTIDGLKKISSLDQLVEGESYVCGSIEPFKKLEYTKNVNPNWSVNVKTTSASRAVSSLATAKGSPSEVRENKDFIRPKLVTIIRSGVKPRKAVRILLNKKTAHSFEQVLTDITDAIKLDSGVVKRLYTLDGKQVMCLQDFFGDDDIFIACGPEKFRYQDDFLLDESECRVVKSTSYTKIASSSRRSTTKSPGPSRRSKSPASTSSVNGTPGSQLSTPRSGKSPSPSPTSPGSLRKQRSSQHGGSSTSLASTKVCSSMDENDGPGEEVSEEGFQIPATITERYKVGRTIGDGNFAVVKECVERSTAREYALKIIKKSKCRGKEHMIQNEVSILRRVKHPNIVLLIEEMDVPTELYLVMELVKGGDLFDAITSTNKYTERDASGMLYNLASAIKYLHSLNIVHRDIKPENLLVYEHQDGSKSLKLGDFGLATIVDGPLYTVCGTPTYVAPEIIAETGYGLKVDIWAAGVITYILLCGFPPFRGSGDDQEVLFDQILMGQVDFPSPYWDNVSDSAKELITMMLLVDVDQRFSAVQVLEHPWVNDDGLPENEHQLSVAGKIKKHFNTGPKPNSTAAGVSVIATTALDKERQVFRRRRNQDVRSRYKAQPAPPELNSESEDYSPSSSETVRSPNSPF", "procedure,_shortened": "as §1"}, "[15]": {"target": "T5, MEKK1 (Homo sapiens, UniProt Q13233)", "T5 construct": "gene MAP3K1", "procedure,_shortened": "as §1"}, "[16]": {"target": "ALK4/ACVR1B (Homo sapiens, UniProt P36896)", "sequence (P36896 whole entry)": "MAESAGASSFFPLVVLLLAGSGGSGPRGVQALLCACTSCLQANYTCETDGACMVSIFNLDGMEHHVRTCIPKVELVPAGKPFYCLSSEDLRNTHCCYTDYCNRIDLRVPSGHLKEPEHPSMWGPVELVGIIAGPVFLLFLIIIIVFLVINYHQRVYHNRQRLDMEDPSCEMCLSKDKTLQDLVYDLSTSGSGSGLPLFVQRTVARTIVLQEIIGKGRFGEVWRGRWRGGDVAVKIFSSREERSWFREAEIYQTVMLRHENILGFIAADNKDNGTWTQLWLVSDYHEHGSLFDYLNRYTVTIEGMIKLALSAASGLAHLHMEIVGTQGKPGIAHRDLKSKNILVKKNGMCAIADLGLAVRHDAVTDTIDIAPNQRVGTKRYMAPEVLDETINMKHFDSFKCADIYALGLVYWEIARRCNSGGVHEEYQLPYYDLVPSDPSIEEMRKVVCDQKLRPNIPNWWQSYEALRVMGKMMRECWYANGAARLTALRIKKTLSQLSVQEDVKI", "procedure,_shortened": "as §1"}, "[17]": {"target": "DRAK1/STK17A (Homo sapiens, UniProt Q9UEE5)", "procedure,_shortened": "as §1"}, "[18]": {"conditions": "read-out: % Enzyme Activity (relative to DMSO controls) / TP-0005801 (0.3µM) / Data 1"}, "[19]": {"conditions": "read-out: % Enzyme Activity (relative to DMSO controls) / TP-0005801 (0.3µM) / Data 2"}}, "note": "Read-outs that look alike come from different tables or passages of the source."}
{"compound": "COc1cc(N2CCN(C)CC2)c(C)cc1Nc1ncc(Br)c(Nc2cccnc2N(C)C)n1", "note": "[TP-5801]", "values": [{"measurement": "remaining activity at 0.3 µM", "setting": "[1]; [18]", "result": 92.2, "unit": "%"}, {"measurement": "remaining activity at 0.3 µM", "setting": "[1]; [19]", "result": 91.6, "unit": "%"}, {"measurement": "remaining activity at 0.3 µM", "setting": "[2]; [18]", "result": 91.9, "unit": "%"}, {"measurement": "remaining activity at 0.3 µM", "setting": "[2]; [19]", "result": 85.6, "unit": "%"}, {"measurement": "remaining activity at 0.3 µM", "setting": "[3]; [18]", "result": 103, "unit": "%"}, {"measurement": "remaining activity at 0.3 µM", "setting": "[3]; [19]", "result": 101, "unit": "%"}, {"measurement": "remaining activity at 0.3 µM", "setting": "[4]; [18]", "result": 81, "unit": "%"}, {"measurement": "remaining activity at 0.3 µM", "setting": "[4]; [19]", "result": 79.4, "unit": "%"}, {"measurement": "remaining activity at 0.3 µM", "setting": "[5]; [18]", "result": 93, "unit": "%"}, {"measurement": "remaining activity at 0.3 µM", "setting": "[5]; [19]", "result": 91.7, "unit": "%"}, {"measurement": "remaining activity at 0.3 µM", "setting": "[6]; [18]", "result": 101, "unit": "%"}, {"measurement": "remaining activity at 0.3 µM", "setting": "[6]; [19]", "result": 97.2, "unit": "%"}, {"measurement": "remaining activity at 0.3 µM", "setting": "[7]; [18]", "result": 97, "unit": "%"}, {"measurement": "remaining activity at 0.3 µM", "setting": "[7]; [19]", "result": 92.9, "unit": "%"}, {"measurement": "remaining activity at 0.3 µM", "setting": "[8]; [18]", "result": 128, "unit": "%"}, {"measurement": "remaining activity at 0.3 µM", "setting": "[8]; [19]", "result": 115, "unit": "%"}, {"measurement": "remaining activity at 0.3 µM", "setting": "[9]; [18]", "result": 62, "unit": "%"}, {"measurement": "remaining activity at 0.3 µM", "setting": "[9]; [19]", "result": 57.2, "unit": "%"}, {"measurement": "remaining activity at 0.3 µM", "setting": "[10]; [18]", "result": 101, "unit": "%"}, {"measurement": "remaining activity at 0.3 µM", "setting": "[10]; [19]", "result": 99.6, "unit": "%"}, {"measurement": "remaining activity at 0.3 µM", "setting": "[11]; [18]", "result": 118, "unit": "%"}, {"measurement": "remaining activity at 0.3 µM", "setting": "[11]; [19]", "result": 109, "unit": "%"}, {"measurement": "remaining activity at 0.3 µM", "setting": "[12]; [18]", "result": 96, "unit": "%"}, {"measurement": "remaining activity at 0.3 µM", "setting": "[12]; [19]", "result": 95.5, "unit": "%"}, {"measurement": "remaining activity at 0.3 µM", "setting": "[13]; [18]", "result": 101, "unit": "%"}, {"measurement": "remaining activity at 0.3 µM", "setting": "[13]; [19]", "result": 99.1, "unit": "%"}, {"measurement": "remaining activity at 0.3 µM", "setting": "[14]; [18]", "result": 94.9, "unit": "%"}, {"measurement": "remaining activity at 0.3 µM", "setting": "[14]; [19]", "result": 93.4, "unit": "%"}, {"measurement": "remaining activity at 0.3 µM", "setting": "[15]; [18]", "result": 111, "unit": "%"}, {"measurement": "remaining activity at 0.3 µM", "setting": "[15]; [19]", "result": 109, "unit": "%"}, {"measurement": "remaining activity at 0.3 µM", "setting": "[16]; [18]", "result": 86.9, "unit": "%"}, {"measurement": "remaining activity at 0.3 µM", "setting": "[16]; [19]", "result": 85, "unit": "%"}, {"measurement": "remaining activity at 0.3 µM", "setting": "[17]; [18]", "result": 92, "unit": "%"}, {"measurement": "remaining activity at 0.3 µM", "setting": "[17]; [19]", "result": 88.6, "unit": "%"}]}
